According to patent US20230234942A1, “COMPOUNDS FOR TREATING HUNTINGTON'S DISEASE” (PTC Therapeutics, Inc., priority 2020, published 2023):

Tested on: Endogenous Huntingtin Protein
Assay: Endogenous Huntingtin Protein Assay (ELISA-based MSD electrochemiluminescence)
Format: cell-based
Settings: Table 2; MSD plates coated with MW1 (expanded polyglutamine) or MAB2166 capture antibody; "inactive" = result above the detection limit of the assay
Procedure: Compounds of Formula (I) were tested using the Meso Scale Discovery (MSD) Assay provided in International Application No. PCT/US2016/066042, filed on Dec. 11, 2016 and claiming priority to U.S. Provisional Application 62/265,652 filed on Dec. 10, 2015, the entire contents of which are incorporated herein by reference.
The Endogenous Huntingtin Protein assay used in Biological Example 1 was developed using the ELISA-based MSD electrochemiluminescence assay platform.
Meso Scale Discovery (MSD) 96-well or 384-well plates were coated overnight at 4° C. with MW1 (expanded polyglutamine) or MAB2166 monoclonal antibody (for capture) at a concentration of 1 μg/mL in PBS (30 μL per well). Plates were then washed three times with 300 μL wash buffer (0.05% Tween-20 in PBS) and blocked (100 μL blocking buffer; 5% BSA in PBS) for 4-5 hours at room temperature with rotational shaking and then washed three times with wash buffer.
Samples (25 μL) were transferred to the antibody-coated MSD plate and incubated overnight at 4° C. After removal of the lysates, the plate was washed three times with wash buffer, and 25 μL of #56565 (Cell signaling; rabbit monoclonal) secondary antibody (diluted to 0.25 μg/mL in 0.05% Tween-20 in blocking buffer) was added to each well and incubated with shaking for 1 Hour at room temperature. Following incubation with the secondary antibody, the wells were rinsed with wash buffer after which 25 μL of goat anti-rabbit SULFO TAG secondary detection antibody (required aspect of the MSD system) (diluted to 0.25 μg/mL in 0.05% Tween-20 in blocking buffer) was added to each well and incubated with shaking for 1 hour at room temperature. After rinsing three times with wash buffer, 150 μL of read buffer T with surfactant (MSD) were added to each empty well, and the plate was imaged on a SI 6000 imager (MSD) according to manufacturers' instructions provided for 96- or 384-well plates.

Structure (SMILES): CN1CCN(c2ncc(-c3ncc(-c4cn[nH]c4)cc3O)nn2)CC1 [Cpd 124, 2-[3-(4-methylpiperazin-1-yl)-1,2,4-triazin-6-yl]-5-(1H-pyrazol-4-yl)pyridin-3-ol]
- IC50: 609 nM

Structure (SMILES): CCC[C@H]1CN(c2ncc(-c3ccc(-c4cn[nH]c4)cc3O)nn2)CCN1 [Cpd 37, 2-{3-[(3S)-3-propylpiperazin-1-yl]-1,2,4-triazin-6-yl}-5-(1H-pyrazol-4-yl)phenol]
- IC50: 50.7 nM

Structure (SMILES): C[C@H]1CN(c2ncc(-c3ccc(-c4cn[nH]c4)cc3O)nn2)C[C@@H](C2CC2)N1 [Cpd 224, 2-{3-[(3R,5S)-3-cyclopropyl-5-methylpiperazin-1-yl]-1,2,4-triazin-6-yl]-5-(1H-pyrazol-4-yl)phenol]
- IC50: 232 nM

Structure (SMILES): COc1cc(-c2ccc(-c3cnc(N4C[C@@H](C(C)C)N[C@@H](C)C4)nn3)c(O)c2)ncn1 [Cpd 227, 5-(6-methoxypyrimidin-4-yl)-2-{3-[(3S,5R)-3-methyl-5-(propan-2-yl)piperazin-1-yl]-1,2,4-triazin-6-yl}phenol]
- IC50: 37.3 nM

Structure (SMILES): [2H]C([2H])([2H])n1cc(-c2ccc(-c3cnc(N4C[C@@H](C)N[C@@H](C5CCC5)C4)nn3)c(O)c2)cn1 [Cpd 238, 2-{3-[(3S,5R)-3-cyclobutyl-5-methylpiperazin-1-yl]-1,2,4-triazin-6-yl}-5-[l-(^2H3)methyl-1H-pyrazol-4-yl]phenol]
- IC50: 55.1 nM

Structure (SMILES): CC(C)[C@H]1CN(c2ncc(-c3ccc(-c4c[nH]nc4F)cc3O)nn2)CCN1 [Cpd 3, 5-(3-fluoro-1H-pyrazol-4-yl)-2-{3-[(3S)-3-(propan-2-yl)piperazin-1-yl]-1,2,4-triazin-6-yl}phenol]
- IC50: 4.4 nM

Structure (SMILES): CC(C)(C)[C@H]1CN(c2ncc(-c3ccc(-n4nccn4)cc3O)nn2)CCN1 [Cpd 18, 2-{3-[(3S)-3-tert-butylpiperazin-1-yl]-1,2,4-triazin-6-yl}-5-(2H-1,2,3-triazol-2-yl)phenol]
- IC50: 15.1 nM

Structure (SMILES): CC(C)(C)[C@H]1CN(c2ncc(-c3cc(F)c(-c4cn[nH]c4)cc3O)nn2)CCN1 [Cpd 164, 2-{3-[(3S)-3-tert-butylpiperazin-1-yl]-1,2,4-triazin-6-yl}-4-fluoro-5-(1H-pyrazol-4-yl)phenol]
- IC50: 4 nM

Structure (SMILES): COc1cc(-c2ccc(-c3cnc(N4C[C@@H](C)N[C@@H](C)C4)nn3)c(O)c2)nn2nc(C)nc12 [Cpd 90, 2-{3-[(3R,5S)-3,5-dimethylpiperazin-1-yl]-1,2,4-triazin-6-yl}-5-(8-methoxy-2-methyl[1,2,4]triazolo[1,5-b]pyridazin-6-yl)phenol]
- IC50: 6.8 nM

Structure (SMILES): Oc1cc(-c2c[nH]nc2F)ccc1-c1cnc(N2CCN[C@H](C3CC3)C2)nn1 [Cpd 7, 2-{3-[(3R)-3-cyclopropylpiperazin-1-yl]-1,2,4-triazin-6-yl}-5-(3-fluoro-1H-pyrazol-4-yl)phenol]
- IC50: 6.9 nM

Structure (SMILES): CC(C)N1CCN(c2ncc(-c3ccc(-c4cn[nH]c4)cc3O)nn2)CC1 [Cpd 60, 2-{3-[4-(propan-2-yl)piperazin-1-yl]-1,2,4-triazin-6-yl}-5-(1H-pyrazol-4-yl)phenol]
- IC50: 1010 nM

Structure (SMILES): CC(C)C1CN(c2ncc(-c3ccc(-c4cc(F)c5nn(C)cc5c4)cc3O)nn2)CCN1 (stereo not shown) [Cpd 71, 5-(7-fluoro-2-methyl-2H-indazol-5-yl)-2-{3-[3-(propan-2-yl)piperazin-1-yl]-1,2,4-triazin-6-yl}phenol]
- IC50: 4 nM

Structure (SMILES): CN1CCN(c2ncc(-c3ccc(-c4cn[nH]c4)cc3O)nn2)CC1C1CC1 (stereo not shown) [Cpd 27, 2-[3-(3-cyclopropyl-4-methylpiperazin-1-yl)-1,2,4-triazin-6-yl]-5-(1H-pyrazol-4-yl)phenol]
- IC50: 25.1 nM

Structure (SMILES): COc1cc(-c2ccc(-c3cnc(N4C[C@@H](C5CC5)N[C@@H](C)C4)nn3)c(O)c2)nc(OC)n1 [Cpd 220, 2-{3-[(3R,5S)-3-cyclopropyl-5-methylpiperazin-1-yl]-1,2,4-triazin-6-yl}-5-(2,6-dimethoxypyrimidin-4-yl)phenol]
- IC50: 88.3 nM

Structure (SMILES): CC(C)[C@H]1CN(c2ncc(-c3ccc(-c4nc(Cl)cs4)cc3O)nn2)CCN1 [Cpd 188, 5-(4-chloro-1,3-thiazol-2-yl)-2-{3-[(3S)-3-(propan-2-yl)piperazin-1-yl]-1,2,4-triazin-6-yl}phenol]
- IC50: 105 nM

Structure (SMILES): Cc1nc2c(C)cc(-c3ccc(-c4cnc(N5CCN[C@@H](C(C)C)C5)nn4)c(O)c3)nn2n1 [Cpd 92, 5-(2,8-dimethyl[1,2,4]triazolo[1,5-b]pyridazin-6-yl)-2-{3-[(3S)-3-(propan-2-yl)piperazin-1-yl]-1,2,4-triazin-6-yl}phenol]
- IC50: 7.9 nM

Structure (SMILES): CC(C)[C@H]1CN(c2ncc(-c3ccc(-c4ncc(F)s4)cc3O)nn2)CCN1 [Cpd 196, 5-(5-fluoro-1,3-thiazol-2-yl)-2-{3-[(3S)-3-(propan-2-yl)piperazin-1-yl]-1,2,4-triazin-6-yl}phenol]
- IC50: 492 nM

Structure (SMILES): Cc1cn2cc(-c3ccc(-c4cnc(N5CCN(C)CC5)nn4)c(O)c3)cc(F)c2n1 [Cpd 73, 5-(8-fluoro-2-methylimidazo[1,2-a]pyridin-6-yl)-2-[3-(4-methylpiperazin-1-yl)-1,2,4-triazin-6-yl]phenol]
- IC50: 4.1 nM

Structure (SMILES): CC(C)[C@H]1CN(c2ncc(-c3ccc(-c4cnn(C)n4)cc3O)nn2)CCN1 [Cpd 262, 5-(2-methyl-2H-1,2,3-triazol-4-yl)-2-{3-[(3S)-3-(propan-2-yl)piperazin-1-yl]-1,2,4-triazin-6-yl}phenol]
- IC50: 94.2 nM

Structure (SMILES): Cc1cn2cc(-c3ccc(-c4cnc(N5C[C@@H](C)N[C@@H](C)C5)nn4)c(O)c3)ncc2n1 [Cpd 86, 2-{3-[(3R,5S)-3,5-dimethylpiperazin-1-yl]-1,2,4-triazin-6-yl}-5-(2-methylimidazo[1,2-a]pyrazin-6-yl)phenol]
- IC50: 6 nM

Structure (SMILES): [2H]C([2H])([2H])Oc1cc(-c2ccc(-c3cnc(N4CCNC(C(C)(C)O)C4)nn3)c(O)c2)ncn1 (stereo not shown) [Cpd 8, 2-{3-[3-(2-hydroxypropan-2-yl)piperazin-1-yl]-1,2,4-triazin-6-yl}-5-{6-[(^2H3)methyloxy]pyrimidin-4-yl}phenol]
- IC50: 8.7 nM

Structure (SMILES): Oc1cc(-c2cn[nH]c2)ccc1-c1cnc(N2CCNC(CC(F)(F)F)C2)nn1 (stereo not shown) [Cpd 146, 5-(1H-pyrazol-4-yl)-2-{3-[3-(2,2,2-trifluoroethyl)piperazin-1-yl]-1,2,4-triazin-6-yl}phenol]
- IC50: 539 nM

Structure (SMILES): Cc1cn2cc(-c3ccc(-c4cnc(N5C[C@@H](C)N(C)[C@@H](C)C5)nn4)c(O)c3)cc(F)c2n1 [Cpd 94, 5-(8-fluoro-2-methylimidazo[1,2-a]pyridin-6-yl)-2-{3-[(3R,5S)-3,4,5-trimethylpiperazin-1-yl]-1,2,4-triazin-6-yl}phenol]
- IC50: 8.3 nM

Structure (SMILES): Cc1cn2nc(-c3ccc(-c4cnc(N5CCN(C)CC5)nn4)c(O)c3)cc(C)c2n1 [Cpd 104, 5-(2,8-dimethylimidazo[1,2-b]pyridazin-6-yl)-2-[3-(4-methylpiperazin-1-yl)-1,2,4-triazin-6-yl]phenol]
- IC50: 14.6 nM

Structure (SMILES): Cc1cn2nc(-c3ccc(-c4cnc(N5C[C@@H](C)N[C@@H](C)C5)nn4)c(O)c3)cc(C)c2n1 [Cpd 69, 5-(2,8-dimethylimidazo[1,2-b]pyridazin-6-yl)-2-{3-[(3R,5S)-3,5-dimethylpiperazin-1-yl]-1,2,4-triazin-6-yl}phenol]
- IC50: 3.6 nM

Structure (SMILES): Cn1cc2cc(-c3ccc(-c4cnc(N5CCN6CCCC6C5)nn4)c(O)c3)cc(F)c2n1 (stereo not shown) [Cpd 95, 5-(7-fluoro-2-methyl-2H-indazol-5-yl)-2-[3-(hexahydropyrrolo[1,2-a]pyrazin-2(1H)-yl)-1,2,4-triazin-6-yl]phenol]
- IC50: 8.3 nM

Structure (SMILES): Cc1cn2cc(-c3ccc(-c4cnc(N5CCN[C@@H](C(C)C)C5)nn4)c(O)c3)nc(C)c2n1 [Cpd 96, 5-(2,8-dimethylimidazo[1,2-a]pyrazin-6-yl)-2-{3-[(3S)-3-(propan-2-yl)piperazin-1-yl]-1,2,4-triazin-6-yl]phenol]
- IC50: 8.6 nM

Structure (SMILES): Cc1cn2cc(-c3ccc(-c4cnc(N5C[C@@H](C)N[C@@H](C)C5)nn4)c(O)c3)cc(C#N)c2n1 [Cpd 87, 6-(4-{3-[(3R,5S)-3,5-dimethylpiperazin-1-yl]-1,2,4-triazin-6-yl}-3-hydroxyphenyl)-2-methylimidazo[1,2-a]pyridine-8-carbonitrile]
- IC50: 6.4 nM

Structure (SMILES): C[C@@H]1CN(c2ncc(-c3ccc(-c4ncns4)cc3O)nn2)C[C@H](C2CC2)N1 (single isomer, unassigned) [Cpd 269, 2-{3-[(3S,5R)-3-cyclopropyl-5-methylpiperazin-1-yl]-1,2,4-triazin-6-yl}-5-(1,2,4-thiadiazol-5-yl)phenol or 2-{3-[(3R,5S)-3-cyclopropyl-5-methylpiperazin-1-yl]-1,2,4-triazin-6-yl}-5-(1,2,4-thiadiazol-5-yl)phenol]
- IC50: 53.9 nM

Structure (SMILES): Cc1cncc(-c2ccc(-c3cnc(N4CCN[C@@H](C(C)C)C4)nn3)c(O)c2)n1 [Cpd 143, 5-(6-methylpyrazin-2-yl)-2-{3-[(3S)-3-(propan-2-yl)piperazin-1-yl]-1,2,4-triazin-6-yl}phenol]
- IC50: 634 nM

Structure (SMILES): CC(C)[C@H]1CN(c2ncc(-c3ccc(-c4cnsn4)cc3O)nn2)CCN1 [Cpd 265, 2-{3-[(3S)-3-(propan-2-yl)piperazin-1-yl]-1,2,4-triazin-6-yl}-5-(1,2,5-thiadiazol-3-yl)phenol]
- IC50: 292 nM
